Experimental data: ChEMBL document CHEMBL4000172, “Identification of a novel 5-amino-3-(5-cyclopropylisoxazol-3-yl)-1-isopropyl-1H-pyrazole-4-carboxamide as a specific RET kinase inhibitor” (Eur J Med Chem, 2017)
Values belong to the compound of their own block, whether it stands above or below them.

Columns and labels:
[1] = Stability in mouse liver microsomes assessed as compound remaining at 1 uM after 15 mins; type: ADME, microsome; details: read-out: Stability
[2] = Stability in rat liver microsomes assessed as compound remaining at 1 uM after 30 mins; type: ADME, microsome; details: read-out: Stability
[3] = Stability in rat liver microsomes assessed as compound remaining at 1 uM after 15 mins; type: ADME, microsome; details: read-out: Stability
[4] = Stability in human liver microsomes assessed as compound remaining at 1 uM after 30 mins; type: ADME, microsome; details: read-out: Stability
[5] = Stability in human liver microsomes assessed as compound remaining at 1 uM after 15 mins; type: ADME, microsome; details: read-out: Stability
[6] = target: T1, Proto-oncogene tyrosine-protein kinase receptor Ret (Homo sapiens, UniProt P07949); assay: Inhibition of human RET using KKKSPGEYVNIEFG as peptide substrate in presence of [gamma33P]ATP by radiometric assay
T1 sequence (P07949 whole entry): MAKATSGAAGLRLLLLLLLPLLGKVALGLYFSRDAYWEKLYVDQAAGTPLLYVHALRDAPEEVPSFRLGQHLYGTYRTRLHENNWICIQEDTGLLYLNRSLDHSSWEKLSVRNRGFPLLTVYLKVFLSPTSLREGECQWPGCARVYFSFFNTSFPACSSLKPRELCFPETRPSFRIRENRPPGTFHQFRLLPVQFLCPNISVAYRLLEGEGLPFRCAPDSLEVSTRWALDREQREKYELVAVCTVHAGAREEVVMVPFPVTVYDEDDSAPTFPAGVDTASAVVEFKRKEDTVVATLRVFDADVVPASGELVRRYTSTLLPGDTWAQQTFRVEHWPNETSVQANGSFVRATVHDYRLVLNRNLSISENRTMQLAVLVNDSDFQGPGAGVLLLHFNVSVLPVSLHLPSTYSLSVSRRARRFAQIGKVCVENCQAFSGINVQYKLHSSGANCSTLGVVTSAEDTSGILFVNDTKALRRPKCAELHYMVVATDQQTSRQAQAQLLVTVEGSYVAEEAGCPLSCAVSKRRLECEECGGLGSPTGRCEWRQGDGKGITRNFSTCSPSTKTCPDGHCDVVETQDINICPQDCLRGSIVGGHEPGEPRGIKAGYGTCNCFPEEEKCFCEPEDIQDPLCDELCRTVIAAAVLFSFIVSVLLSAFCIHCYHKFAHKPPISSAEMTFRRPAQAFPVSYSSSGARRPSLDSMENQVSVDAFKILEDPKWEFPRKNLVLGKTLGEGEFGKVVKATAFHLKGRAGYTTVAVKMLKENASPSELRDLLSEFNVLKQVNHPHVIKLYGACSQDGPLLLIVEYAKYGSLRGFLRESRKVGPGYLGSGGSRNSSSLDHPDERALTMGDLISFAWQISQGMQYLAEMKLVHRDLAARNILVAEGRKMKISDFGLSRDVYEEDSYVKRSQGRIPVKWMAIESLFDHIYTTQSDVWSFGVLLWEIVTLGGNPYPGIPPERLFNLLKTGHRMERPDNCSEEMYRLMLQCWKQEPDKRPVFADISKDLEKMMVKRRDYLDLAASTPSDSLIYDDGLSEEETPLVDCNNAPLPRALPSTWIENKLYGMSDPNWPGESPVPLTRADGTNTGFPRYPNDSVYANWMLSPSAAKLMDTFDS

[7] = tested on: Proto-oncogene tyrosine-protein kinase receptor Ret (Homo sapiens), P07949 [V804M]
Proto-oncogene tyrosine-protein kinase receptor Ret (Homo sapiens), P07949 [V804M], sequence (P07949 whole entry V804M): as the sequence (P07949 whole entry) above, with V804M counted along it
Description: Inhibition of RET V804M mutant (unknown origin) transfected in mouse Ba/F3 cells assessed as reduction in cell viability by CellTiter-Glo luminescence assay

[8] = target: Proto-oncogene tyrosine-protein kinase receptor Ret (Homo sapiens, UniProt P07949, V804M); assay: Inhibition of human RET V804M mutant using peptide substrate KKKVSRSGLYRSPS MPENLNRPR in presence of [gamma33P]ATP by radiometric assay
Proto-oncogene tyrosine-protein kinase receptor Ret (Homo sapiens, UniProt P07949, V804M), sequence (P07949 29-1114 V804M limits assumed): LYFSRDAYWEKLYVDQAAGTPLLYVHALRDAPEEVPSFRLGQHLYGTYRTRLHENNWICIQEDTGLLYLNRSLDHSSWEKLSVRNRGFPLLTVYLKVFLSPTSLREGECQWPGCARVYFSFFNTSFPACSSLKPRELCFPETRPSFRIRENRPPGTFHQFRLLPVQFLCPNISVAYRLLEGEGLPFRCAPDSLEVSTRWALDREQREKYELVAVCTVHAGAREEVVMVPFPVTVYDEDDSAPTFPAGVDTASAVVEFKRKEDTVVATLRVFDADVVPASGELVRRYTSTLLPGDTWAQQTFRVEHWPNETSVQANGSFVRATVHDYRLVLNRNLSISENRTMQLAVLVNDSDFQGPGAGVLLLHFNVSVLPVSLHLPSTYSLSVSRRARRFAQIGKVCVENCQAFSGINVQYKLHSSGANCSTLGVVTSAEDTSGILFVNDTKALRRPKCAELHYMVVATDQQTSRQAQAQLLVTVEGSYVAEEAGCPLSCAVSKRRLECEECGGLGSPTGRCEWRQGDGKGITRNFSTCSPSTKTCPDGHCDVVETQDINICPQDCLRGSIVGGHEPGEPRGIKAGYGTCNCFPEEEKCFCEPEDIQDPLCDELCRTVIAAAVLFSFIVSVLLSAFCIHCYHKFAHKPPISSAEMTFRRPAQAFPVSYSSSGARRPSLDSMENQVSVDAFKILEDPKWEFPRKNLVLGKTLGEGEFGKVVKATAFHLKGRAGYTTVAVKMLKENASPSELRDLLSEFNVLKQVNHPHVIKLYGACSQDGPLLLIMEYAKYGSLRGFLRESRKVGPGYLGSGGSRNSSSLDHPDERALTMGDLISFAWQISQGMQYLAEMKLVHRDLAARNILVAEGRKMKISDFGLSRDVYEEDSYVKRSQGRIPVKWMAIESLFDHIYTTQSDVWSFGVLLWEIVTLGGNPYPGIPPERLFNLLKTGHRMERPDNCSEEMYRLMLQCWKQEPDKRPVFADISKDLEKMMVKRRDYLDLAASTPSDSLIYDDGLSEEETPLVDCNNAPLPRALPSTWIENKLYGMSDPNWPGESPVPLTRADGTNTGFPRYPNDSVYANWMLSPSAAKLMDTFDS

[9] = Cytotoxicity against human Nthy-ori 3-1 cells assessed as reduction in cell viability by CellTiter-Glo luminescence assay; type: cell-based
[10] = tested on: Proto-oncogene tyrosine-protein kinase receptor Ret (Homo sapiens), P07949 [C634W]
Proto-oncogene tyrosine-protein kinase receptor Ret (Homo sapiens), P07949 [C634W], sequence (P07949 whole entry C634W): as the sequence (P07949 whole entry) above, with C634W counted along it
Description: Inhibition of RET C634W mutant in human TT cells assessed as reduction in cell viability by CellTiter-Glo luminescence assay

[11] = Cytotoxicity against mouse BA/F3 cells assessed as reduction in cell viability by CellTiter-Glo luminescence assay; type: cell-based, BaF3
[12] = target: T1, Proto-oncogene tyrosine-protein kinase receptor Ret
Description: Inhibition of RET (unknown origin) transfected in mouse Ba/F3 cells assessed as reduction in cell viability by CellTiter-Glo luminescence assay

[13] = Induction of apoptosis in human Nthy-ori 3-1 cells assessed as increase in cleaved PARP level at 5 to 20 uM after 48 hrs by Western blot method; type: cell-based; details: nthy-ori 3-1, 48 h
[14] = Induction of apoptosis in human Nthy-ori 3-1 cells assessed as increase in cleaved PARP level at 5 uM after 48 hrs by Western blot method; type: cell-based; details: nthy-ori 3-1, 48 h

Compound: CC(C)c1cc(-c2nn(C(C)C)c3ncnc(N)c23)no1
remaining at 0.25 h, 1 µM [1]: 5.1%
remaining at 0.5 h, 1 µM [2]: 4.1%
remaining at 0.25 h, 1 µM [3]: 3.8%
remaining at 0.5 h, 1 µM [4]: 4.6%
remaining at 0.25 h, 1 µM [5]: 29%

Compound: Nc1ncnc2[nH]nc(-c3cc(C4CC4)on3)c12
remaining at 0.25 h, 1 µM [1]: 1.4%

Compound: CC(C)n1nc(-c2cc(C3CCCCC3)on2)c(C(N)=O)c1N
remaining at 0.25 h, 1 µM [1]: 40.6%
IC50 [6]: 2700 nM

Compound: CCc1cc(-c2nn(C(C)C)c(N)c2C(N)=O)no1
remaining at 0.25 h, 1 µM [1]: 15.1%
IC50 [6]: 631 nM

Compound: CC(C)n1nc(-c2cc(C3CC3)on2)c(C(N)=O)c1N
remaining at 0.25 h, 1 µM [1]: 62.5%
remaining at 0.5 h, 1 µM [2]: 69%
remaining at 0.25 h, 1 µM [3]: 70%
GI50 [7]: 6980 nM
remaining at 0.5 h, 1 µM [4]: 45.1%
IC50 [8]: 252 nM
GI50 [9]: > 10000 nM
remaining at 0.25 h, 1 µM [5]: 73%
GI50 [10]: 1660 nM
GI50 [11]: > 10000 nM
GI50 [12]: 870 nM
IC50 [6]: 44 nM
Activity [13]: Non-Toxic

Compound: CC(C)n1nc(-c2cc(C(C)(C)C)on2)c(C(N)=O)c1N
remaining at 0.25 h, 1 µM [1]: 78%
IC50 [6]: 2220 nM

Compound: CC(C)n1nc(-c2coc(C3CC3)n2)c2c(N)ncnc21
remaining at 0.25 h, 1 µM [1]: 2.8%
IC50 [6]: 139 nM

Compound: CC(C)c1cc(-c2nn(C(C)C)c(N)c2C(N)=O)no1
remaining at 0.25 h, 1 µM [1]: 51.6%
IC50 [6]: 1260 nM

Compound: COc1cc2nccc(Oc3ccc(NC(=O)C4(C(=O)Nc5ccc(F)cc5)CC4)cc3)c2cc1OC [CABOZANTINIB]
GI50 [7]: 740 nM
Activity [14]: Toxic
GI50 [9]: 2920 nM
GI50 [10]: 260 nM
GI50 [11]: > 10000 nM
GI50 [12]: 70 nM

Compound: CC(C)n1nc(-c2ccon2)c2c(N)ncnc21
remaining at 0.25 h, 1 µM [1]: 2.6%

Compound: CC(C)n1nc(-c2cc(Cc3ccccc3)on2)c(C(N)=O)c1N
remaining at 0.25 h, 1 µM [1]: 54.6%
IC50 [6]: 1640 nM

Now from value to compound, other results behind:

remaining at 0.25 h, 1 µM [1]: 49%
IC50 [6]: 4800 nM
Compound: CC(C)n1nc(-c2cc(-c3ccccn3)on2)c(C(N)=O)c1N

remaining at 0.25 h, 1 µM [1]: 85.2%
IC50 [6]: 416 nM
Compound: CC(C)n1nc(-c2cc(-c3ccc(F)cc3)on2)c(C(N)=O)c1N

remaining at 0.25 h, 1 µM [1]: 60.8%
IC50 [6]: 236 nM
Compound: CC(C)n1nc(-c2cc(-c3ccccc3)on2)c(C(N)=O)c1N

remaining at 0.25 h, 1 µM [1]: 86.7%
IC50 [6]: 3390 nM
Compound: CC(C)n1nc(-c2cc(-c3cccnc3)on2)c(C(N)=O)c1N

remaining at 0.25 h, 1 µM [1]: 11.8%
GI50 [7]: > 10000 nM
IC50 [8]: 2900 nM
GI50 [10]: > 10000 nM
GI50 [12]: > 10000 nM
IC50 [6]: 162 nM
Compound: CC(C)n1nc(-c2cc(-c3ccsc3)on2)c(C(N)=O)c1N
GI50 [9]: > 10000 nM
GI50 [11]: > 10000 nM

remaining at 0.25 h, 1 µM [1]: 32.1%
GI50 [7]: > 10000 nM
IC50 [8]: 1220 nM
GI50 [10]: > 10000 nM
GI50 [12]: > 10000 nM
IC50 [6]: 78 nM
Compound: CC(C)n1nc(-c2cc(-c3cccs3)on2)c(C(N)=O)c1N
GI50 [9]: > 10000 nM
GI50 [11]: > 10000 nM

remaining at 0.25 h, 1 µM [1]: 61.8%
IC50 [6]: 1660 nM
Compound: Cc1ccc(-c2cc(-c3nn(C(C)C)c(N)c3C(N)=O)no2)cc1
